Measurements published in US12459919B2, “Polymorphic forms of (R)-4-(1-((3-(difluoromethyl)-1-methyl-1H-pyrazol-4-yl)sulfonyl)-1- fluoroethyl)-N-(isoxazol-3-yl)piperidine-1-carboxamide” (MyoKardia, Inc., priority 2019, dated 2025).

What was measured:
bovine cardiac myosin = bovine cardiac myosin (Bos taurus, UniProt Q9BE39); assay: Myosin activation assay (PK/LDH-coupled ATPase, skinned myofibrils); format: biochemical; settings: concentration at which total response is increased by twenty percent
bovine cardiac myosin, sequence (Q9BE39 whole entry): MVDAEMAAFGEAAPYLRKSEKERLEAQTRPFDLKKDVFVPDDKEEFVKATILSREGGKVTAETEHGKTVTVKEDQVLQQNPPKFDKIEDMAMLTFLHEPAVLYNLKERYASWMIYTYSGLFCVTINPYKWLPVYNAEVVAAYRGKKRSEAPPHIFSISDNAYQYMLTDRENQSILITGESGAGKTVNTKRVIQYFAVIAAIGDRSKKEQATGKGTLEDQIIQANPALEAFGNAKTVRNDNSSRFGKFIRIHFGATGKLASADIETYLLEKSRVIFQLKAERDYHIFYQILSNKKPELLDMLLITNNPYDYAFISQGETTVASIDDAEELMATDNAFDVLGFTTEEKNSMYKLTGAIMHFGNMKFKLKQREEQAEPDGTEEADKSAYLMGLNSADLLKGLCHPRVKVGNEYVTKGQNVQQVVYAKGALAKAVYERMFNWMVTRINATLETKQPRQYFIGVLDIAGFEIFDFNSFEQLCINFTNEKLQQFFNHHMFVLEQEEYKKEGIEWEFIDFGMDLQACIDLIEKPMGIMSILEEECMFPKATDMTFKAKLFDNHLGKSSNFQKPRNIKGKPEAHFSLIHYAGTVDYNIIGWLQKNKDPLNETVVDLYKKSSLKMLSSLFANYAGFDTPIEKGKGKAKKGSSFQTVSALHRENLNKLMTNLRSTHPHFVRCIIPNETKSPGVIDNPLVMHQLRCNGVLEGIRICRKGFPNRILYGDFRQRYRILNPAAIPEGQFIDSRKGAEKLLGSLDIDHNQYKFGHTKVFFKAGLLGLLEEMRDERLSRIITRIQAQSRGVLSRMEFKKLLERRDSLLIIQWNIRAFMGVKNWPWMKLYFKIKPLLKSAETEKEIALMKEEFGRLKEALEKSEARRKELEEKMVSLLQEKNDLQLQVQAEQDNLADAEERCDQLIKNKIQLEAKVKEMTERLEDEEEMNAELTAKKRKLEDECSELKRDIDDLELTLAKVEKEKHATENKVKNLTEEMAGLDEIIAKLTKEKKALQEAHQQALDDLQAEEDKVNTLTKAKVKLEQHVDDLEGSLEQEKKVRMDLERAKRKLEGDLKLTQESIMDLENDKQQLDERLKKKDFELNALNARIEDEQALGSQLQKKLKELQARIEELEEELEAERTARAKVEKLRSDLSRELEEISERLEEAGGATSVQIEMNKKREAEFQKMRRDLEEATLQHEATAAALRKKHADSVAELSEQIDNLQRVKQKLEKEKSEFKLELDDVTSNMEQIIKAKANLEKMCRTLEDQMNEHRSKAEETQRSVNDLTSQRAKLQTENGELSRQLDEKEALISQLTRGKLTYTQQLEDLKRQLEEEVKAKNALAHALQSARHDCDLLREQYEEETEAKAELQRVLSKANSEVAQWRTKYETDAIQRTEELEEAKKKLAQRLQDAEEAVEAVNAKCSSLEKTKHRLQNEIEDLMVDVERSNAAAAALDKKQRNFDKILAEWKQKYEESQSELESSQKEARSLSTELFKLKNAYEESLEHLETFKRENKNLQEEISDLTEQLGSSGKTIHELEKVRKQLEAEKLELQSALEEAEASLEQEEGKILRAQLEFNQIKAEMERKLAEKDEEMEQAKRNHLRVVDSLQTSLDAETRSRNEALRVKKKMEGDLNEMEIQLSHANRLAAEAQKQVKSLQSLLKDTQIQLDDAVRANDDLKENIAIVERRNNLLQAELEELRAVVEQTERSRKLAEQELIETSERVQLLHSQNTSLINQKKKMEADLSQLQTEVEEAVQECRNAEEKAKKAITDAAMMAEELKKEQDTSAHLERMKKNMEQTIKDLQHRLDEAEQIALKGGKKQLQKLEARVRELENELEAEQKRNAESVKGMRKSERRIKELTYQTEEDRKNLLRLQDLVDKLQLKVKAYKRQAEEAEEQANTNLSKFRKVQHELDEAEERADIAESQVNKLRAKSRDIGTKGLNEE
bovine cardiac myosin, sequence (P85100 whole entry partner): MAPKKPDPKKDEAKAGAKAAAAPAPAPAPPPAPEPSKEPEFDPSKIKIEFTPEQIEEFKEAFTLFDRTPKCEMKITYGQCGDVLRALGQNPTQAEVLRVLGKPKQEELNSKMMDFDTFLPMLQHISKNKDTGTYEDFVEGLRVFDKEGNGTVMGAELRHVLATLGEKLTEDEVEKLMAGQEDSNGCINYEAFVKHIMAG
bovine cardiac myosin, sequence (Q3SZE5 whole entry partner): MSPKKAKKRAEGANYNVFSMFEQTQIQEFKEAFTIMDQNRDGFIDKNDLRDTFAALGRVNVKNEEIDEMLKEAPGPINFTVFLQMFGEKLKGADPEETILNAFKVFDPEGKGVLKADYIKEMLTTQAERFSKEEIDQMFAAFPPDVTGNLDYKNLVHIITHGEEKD
Description: Small molecule agents were assessed for their ability to activate the enzymatic activity of bovine cardiac myosin using a biochemical assay that couples the release of ADP (adenosine diphosphate) from cardiac myosin to an enzymatic coupling system consisting of pyruvate kinase and lactate dehydrogenase (PK/LDH) and monitoring the absorbance decrease of NADH (at 340 nm) as a function of time. PK converts ADP to ATP (adenosine triphosphate) by converting PEP (phosphoenolpyruvate) to pyruvate. Pyruvate is then converted to lactate by LDH by converting NADH (nicotinamide adenine dinucleotide) to NAD (oxidized nicotinamide adenine dinucleotide). […] Prior to testing small molecule agents, the bovine myofibrils were assessed for their calcium responsiveness and the calcium concentration that achieves either a 50% (pCa50 or pCa=˜6) or <5% (pCa=10) activation of the myofibril system was chosen as the final condition for assessing the activation activity of the small molecule agents. […]
A dilution series of compound was created in DMSO such that the final desired concentration of compound would be achieved in a volume of […] with a fixed DMSO concentration of 3.3% (v/v). […] The reaction progress was followed in a PerkinElmer Envision plate reader at ambient temperature using clear bottom plates. The plate reader was configured to read absorbance at 340 nm in kinetics mode for 15 minutes. […]

[1] = tested on: adult rat ventricular myocytes; assay: Cardiomyocyte contractility assay (fractional shortening, IonOptix); format: cell-based; settings: 5 minutes perfusion, 1 Hz pacing
Description: Contractility of adult rat ventricular myocytes is determined by edge detection with an IonOptix contractility system. Aliquots of myocytes in Tyrode buffer (137 mM NaCl, 3.7 mM KCl, 0.5 mM MgCl2, 1.5 mM CaCl2, 4 mM HEPES, 11 mM glucose) are placed in a perfusion chamber (Series 20 RC-27NE; Warner Instruments), allowed to adhere to the coverslip, and then perfused with 37° C. Tyrode buffer. Myocytes are filed stimulated at 1 Hz and 10V. Only myocytes with clear striations, quiescent prior to pacing, with a cell length of 120-180 microns, a basal fractional shortening equal to 3-8% of the cell length, and a contraction velocity greater than 100 microns per second are used for contractility experiments. To determine the response to compounds, myocytes are first perfused for 60 seconds with Tyrodes buffer followed by 5 minutes of compound and a 140 second washout with Tyrodes buffer. Data is continuously recorded using IonOptix software. Contractility data is analyzed using Ionwizard software (IonOptix). For each cell, 10-20 contractility transients were averaged and compared under basal (no compound) and compound-treated conditions. Compound activity is measured by effects on fractional shortening (FS), where fractional shortening is the ratio of the peak length of the cell at contraction divided by the basal cell length normalized to 100% for an untreated cell.

[2] = DVS isotherm (hygroscopicity); format: physicochemical
[3] = Polymorph relative stability, interconversion slurring experiments; format: physicochemical

Hygroscopic character (DVS isotherm) [2]	Relative stability of polymorphs ([3]; 1:1 (w/w) forms A+εD and B slurried 18 hours in acetonitrile and water mixture, range of RT to 70° C.)	Polymorph stability ranking ([3]; compared to Form A, Form C, and Form D)	Structure (SMILES)	Myosin Activation (AC20) (bovine cardiac myosin)	Activity at 3.0 uM (fractional shortening activation over basal) ([1]; 3.0 uM compound)	Activity at 10 uM (fractional shortening activation over basal) ([1]; 10 uM compound)
non-hygroscopic			Cn1cc(S(=O)(=O)[C@@](C)(F)C2CCN(C(=O)Nc3ccon3)CC2)c(C(F)F)n1 [Form A, (R)-4-(1-((3-(difluoromethyl)-1-methyl-1H-pyrazol-4-yl)sulfonyl)-1-fluoroethyl)-N-(isoxazol-3-yl)piperidine-1-carboxamide]	+++ (myosin activation value AC20 < 2 μM)	+ (fractional shorting activation <20% over basal)	++ (fractional shorting activation values from 20% to 50% over basal)
nonhygroscopic	more stable compared to Form A	most stable polymorph	Cn1cc(S(=O)(=O)[C@@](C)(F)C2CCN(C(=O)Nc3ccon3)CC2)c(C(F)F)n1 [Form B, (R)-4-(1-((3-(difluoromethyl)-1-methyl-1H-pyrazol-4-yl)sulfonyl)-1-fluoroethyl)-N-(isoxazol-3-yl)piperidine-1-carboxamide]			
